The values that follow come from patent US20060052375A1, “Bis-alkylbenzylamines” (priority 2002, published 2006).

What all share (type): cell-based
For experiment [1], the system named is Escherichia coli ATCC 10536. Put plainly: Minimum inhibiting concentration (MIC value) in microtitre plates. More on the design: unit not given here. To be noted: serial dilution 1:2, 48 hours at 37° C., <20% growth compared with growth control. On the procedure: (§1) Determination of the Minimum Inhibiting Concentration (MIC Value) in Microtitre Plates Nutrient Medium: Casein/soybean flour peptone bouillon for the preparation of the precultures of the test bacteria and yeast. Examples of Test Organisms: Bacteria: Escherichia coli ATCC 10536 (=EC) Staphylococcus aureus ATCC 6538(=SA) Procedure: The test substances are predissolved in dimethyl sulfoxide (DMSO) and tested in a serial dilution of 1:2. Bacteria and yeast are cultured overnight in CASO bouillon. All test organism suspensions are adjusted to an organism count of 1-5×10^6 CFU/ml with 0.85% sodium chloride solution. The test substances are prepipetted into microtitre plates in an amount of 8 μl per well. The previously adjusted organism suspensions are diluted 1:100 in CASO bouillon and added to the test substances in an amount of 192 μl per well. The test batches are incubated for 48 hours at 37° C. After incubation, the growth is determined by reference to the turbidity of the test batches (optical density) at 620 nm in a microplate reader. The minimum inhibiting concentration (MIC value) is the concentration of substance at which an appreciable inhibition of the growth (<20% growth compared with the growth control) of the test organisms is ascertained. Three microtitre plates are used for each test organism and substance concentration.

The test system of experiment [2] is Staphylococcus aureus ATCC 6538. The description is as above. Also on record: unit not given here. As to conditions: serial dilution 1:2, 48 hours at 37° C., <20% growth compared with growth control. On the procedure:
as §1

Experiment [3] concerns Candida albicans ATCC 10231. The experiment is described as follows: MIC in agar incorporation test. As to conditions: GC purity 88%. On the procedure: (§2) Determination of the Minimum Inhibiting Concentration of the Compound of Formula (3) in Respect of a Wider Spectrum of Organisms The compound of formula (3) (see Table 1; GC purity 88%; prepared in accordance with Example 1) is tested on the microorganisms indicated in Table 3. The test for determining the minimum inhibiting concentration is effected in an agar incorporation test.

The test system of experiment [4] is C. minutissimum ATCC 23348. The experiment is described as follows: MIC in agar incorporation test. To be noted: GC purity 88%. On the procedure: as §2
For experiment [5], the system named is Propionibacterium acnes ATCC 6919. Put plainly: MIC in agar incorporation test. As to conditions: GC purity 88%. On the procedure: as §2
Experiment [6] deals with Salmonella choleraesuis ATCC 9184. The experiment is described as follows: MIC in agar incorporation test. As to conditions: GC purity 88%. On the procedure:
as §2

In experiment [7] the test system is Aspergillus niger ATCC 6275. Put plainly: MIC in agar incorporation test. To be noted: GC purity 88%. On the procedure:
as §2

Experiment [8] has as its system Corynebacterium xerosis ATCC 373. Put plainly: MIC in agar incorporation test. As to conditions: GC purity 88%. As to the method:
as §2

The test system of experiment [9] is Proteus vulgaris ATCC 6896. The experiment is described as follows: MIC in agar incorporation test. As to conditions: GC purity 88%. As to the method:
as §2

The subject of experiment [10] is Escherichia coli NCTC 8196. The experiment is described as follows: MIC in agar incorporation test. As to conditions: GC purity 88%. As to the method:
as §2

For experiment [11], the system named is Staphylococcus epidermidis ATCC 12228. Put plainly: MIC in agar incorporation test. As to conditions: GC purity 88%. On the procedure:
as §2

Experiment [12] concerns Escherichia coli ATCC 10536. The experiment is described as follows: MIC in agar incorporation test. As to conditions: GC purity 88%. On the procedure: as §2
The test system of experiment [13] is Staphylococcus aureus ATCC 9144. The experiment is described as follows: MIC in agar incorporation test. To be noted: GC purity 88%. On the procedure: as §2
Experiment [14] has as its system Pseudomonas aeruginosa ATCC 15442. The experiment is described as follows: MIC in agar incorporation test. To be noted: GC purity 88%. On the procedure:
as §2

In experiment [15] the test system is Klebsiella pneumoniae ATCC 4352. Put plainly: MIC in agar incorporation test. As to conditions: GC purity 88%. On the procedure:
as §2

Experiment [16] deals with Staphylococcus aureus ATCC 6538. Put plainly: MIC in agar incorporation test. As to conditions: GC purity 88%. As to the method:
as §2

With `CCCNCc1ccc(-c2ccc(CNCCC)cc2)cc1` [Compound of formula 2], the “MIC value ATCC 10536” value in [1] was 15. Moreover, the “MIC value ATCC 6538” value in experiment [2] is reported as 15.
`CCCCCCCCNCc1ccc(-c2ccc(CNCCCCCCCC)cc2)cc1` [Compound of formula 3, octyl-(4′-octylaminomethyl-biphenyl-4-ylmethyl)-amine]: the MIC in experiment [3] is on record as over 120; in experiment [4], 1.88; in experiment [5], 3.75; in experiment [6], 7.5; in experiment [7], over 120; in experiment [8], 1.88. Further, the MIC in experiment [9] is over 120; in experiment [10], 3.75; in experiment [11], 3.75; in [12] it was 3.75; in experiment [13] it was 3.75; in experiment [14], over 120. For the same compound, the MIC in experiment [15] is 7.5; in experiment [16], 3.75. In experiment [1], the “MIC value ATCC 10536” value is under 3.75. Moreover, the “MIC value ATCC 6538” value in experiment [2] stood at 7.5.
As to `CCCCCCCCCCNCc1ccc(-c2ccc(CNCCCCCCCCCC)cc2)cc1` [Compound of formula 4], the “MIC value ATCC 10536” value in [1] was determined as 15. Further, in experiment [2], the “MIC value ATCC 6538” value is given as 30.
The corresponding values for `CCCCCCCCCCCNCc1ccc(-c2ccc(CNCCCCCCCCCCC)cc2)cc1` [Compound of formula 5] are 30 and 30.
The like results for `CCCCCCCCCCCCCNCc1ccc(-c2ccc(CNCCCCCCCCCCCCC)cc2)cc1` [Compound of formula 6] were, in that order, 30 and 30.
Turning to `CC(C)NCc1ccc(-c2ccc(CNC(C)C)cc2)cc1` [Compound of formula 7], the “MIC value ATCC 10536” value in [1] worked out at 30. In [2], the “MIC value ATCC 6538” value was found to be 15.
The like results for `CCC(C)NCc1ccc(-c2ccc(CNC(C)CC)cc2)cc1` (centres unmarked) [Compound of formula 8] were, in that order, 60 and 15.
For the compound `CC(C)(C)NCc1ccc(-c2ccc(CNC(C)(C)C)cc2)cc1` [Compound of formula 9], the “MIC value ATCC 10536” value in experiment [1] is given as over 120. In addition, in [2], the “MIC value ATCC 6538” value was 60.
The corresponding values for `CCCC(C)NCc1ccc(-c2ccc(CNC(C)CCC)cc2)cc1` (centres unmarked) [Compound of formula 10] are 30 and 15.
The like results for `CC(C)CCNCc1ccc(-c2ccc(CNCCC(C)C)cc2)cc1` [Compound of formula 11] were, in that order, 30 and 30.
The like results for `CC(C)CC(C)NCc1ccc(-c2ccc(CNC(C)CC(C)C)cc2)cc1` (centres unmarked) [Compound of formula 12] were, in that order, 60 and 30.
Turning to `CCCCC(CC)CNCc1ccc(-c2ccc(CNCC(CC)CCCC)cc2)cc1` (centres unmarked) [Compound of formula 13], the “MIC value ATCC 10536” value in experiment [1] was 7.5. Also, the “MIC value ATCC 6538” value in experiment [2] is recorded as 7.5.
As for `COCC(C)NCc1ccc(-c2ccc(CNC(C)COC)cc2)cc1` (centres unmarked) [Compound of formula 14], the “MIC value ATCC 10536” value in experiment [1] is given as over 120. Besides, in experiment [2], the “MIC value ATCC 6538” value was 30.
Consider `c1ccc(CNCc2ccc(-c3ccc(CNCc4ccccc4)cc3)cc2)cc1` [Compound of formula 15], for which, in experiment [1], the “MIC value ATCC 10536” value was 120. Also, the “MIC value ATCC 6538” value in experiment [2] came to 120.
For `c1cc(-c2ccc(CNC3CCCCC3)cc2)ccc1CNC1CCCCC1` [Compound of formula 16], the “MIC value ATCC 10536” value in experiment [1] amounted to 120. The “MIC value ATCC 6538” value in experiment [2] is listed as 60.
As for `c1ccc(CCNCc2ccc(-c3ccc(CNCCc4ccccc4)cc3)cc2)cc1` [Compound of formula 17], the “MIC value ATCC 10536” value in experiment [1] was determined as 15. Besides, in experiment [2], the “MIC value ATCC 6538” value was 15.
As for `c1cc(-c2ccc(CN3CCOCC3)cc2)ccc1CN1CCOCC1` [Compound of formula 18], the “MIC value ATCC 10536” value in [1] is over 120. For the same compound, the “MIC value ATCC 6538” value in experiment [2] was over 120.
Regarding `CC(=O)N1CCN(Cc2ccc(-c3ccc(CN4CCN(C(C)=O)CC4)cc3)cc2)CC1` [Compound of formula 19], the “MIC value ATCC 10536” value in experiment [1] is listed as over 120. For the same compound, in experiment [2], the “MIC value ATCC 6538” value was over 120.
`c1coc(CNCc2ccc(-c3ccc(CNCc4ccco4)cc3)cc2)c1` [Compound of formula 20]: the “MIC value ATCC 10536” value in experiment [1] is on record as over 120. For the same compound, in [2], the “MIC value ATCC 6538” value was over 120.
Consider `CCCCN(C)Cc1ccc(-c2ccc(CN(C)CCCC)cc2)cc1` [Compound of formula 21], for which the “MIC value ATCC 10536” value in experiment [1] was 120. Also, the “MIC value ATCC 6538” value in experiment [2] is reported as over 120.
For `CCCCCCCCCCCCN(C)Cc1ccc(-c2ccc(CN(C)CCCCCCCCCCCC)cc2)cc1` [Compound of formula 22], the “MIC value ATCC 10536” value in [1] was determined as 15. In experiment [2], the “MIC value ATCC 6538” value came out at 15.
Take `CCN(CC)Cc1ccc(-c2ccc(CN(CC)CC)cc2)cc1` [Compound of formula 23]: the “MIC value ATCC 10536” value in experiment [1] is over 120. The “MIC value ATCC 6538” value in [2] was determined as 15.
On to `CCCN(CCC)Cc1ccc(-c2ccc(CN(CCC)CCC)cc2)cc1` [Compound of formula 24], for which, in experiment [1], the “MIC value ATCC 10536” value was over 120. Further, in experiment [2], the “MIC value ATCC 6538” value is on record as over 120.
As for `CCCCN(CCCC)Cc1ccc(-c2ccc(CN(CCCC)CCCC)cc2)cc1` [Compound of formula 25], the “MIC value ATCC 10536” value in experiment [1] is given as over 120. In experiment [2], the “MIC value ATCC 6538” value was over 120.
In the case of `CCCCCN(CCCCC)Cc1ccc(-c2ccc(CN(CCCCC)CCCCC)cc2)cc1` [Compound of formula 26], the “MIC value ATCC 10536” value in experiment [1] is over 120. Besides, the “MIC value ATCC 6538” value in experiment [2] amounted to 30.
`CCCCCCN(CCCCCC)Cc1ccc(-c2ccc(CN(CCCCCC)CCCCCC)cc2)cc1` [Compound of formula 27]: the “MIC value ATCC 10536” value in experiment [1] is recorded as over 120. In addition, the “MIC value ATCC 6538” value in [2] amounted to 15.
As to `CCCCCCCCN(CCCCCCCC)Cc1ccc(-c2ccc(CN(CCCCCCCC)CCCCCCCC)cc2)cc1` [Compound of formula 28], the “MIC value ATCC 10536” value in [1] worked out at 15. The “MIC value ATCC 6538” value in experiment [2] came out at 7.5.
On to `c1ccc(CN(Cc2ccccc2)Cc2ccc(-c3ccc(CN(Cc4ccccc4)Cc4ccccc4)cc3)cc2)cc1` [Compound of formula 29], for which the “MIC value ATCC 10536” value in [1] is over 120. In [2], the “MIC value ATCC 6538” value is over 120.
For the compound `CN(CCO)Cc1ccc(-c2ccc(CN(C)CCO)cc2)cc1` [Compound of formula 30], the “MIC value ATCC 10536” value in experiment [1] is listed as over 120. Besides, the “MIC value ATCC 6538” value in experiment [2] is listed as over 120.
Take `c1cc(-c2ccc(CN3CCCCCC3)cc2)ccc1CN1CCCCCC1` [Compound of formula 31]: in experiment [1], the “MIC value ATCC 10536” value came to 120. In experiment [2], the “MIC value ATCC 6538” value is reported as 60.
